Experimental data from patent US7605272B2, “IGF-1R inhibitor” (Kyowa Hakko Kirin Co., Ltd., priority 2005, dated 2009).
Counter-ions that a name gives are not always drawn. Like-named read-outs stand apart in the source and are kept apart here.

Tests used:
KMS-11 = assay: Cytostatic activity on human multiple myeloma cell line KMS-11 (WST-1); format: cell-based; conditions: Homo sapiens, 10 μmol/L, 72 hours, read-out: cytostatic rate (%) KMS-11 (10 μmol/L)
In short: (§1)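 Cytostatic rate is 100 minus % growth relative to DMSO-only wells (100%) and blank wells (0%), read by WST-1 absorbance at 450/690 nm after 2 h. Compound at 1 or 10 μmol/L final was applied for 72 h at 37 °C to cells seeded 24 h earlier.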

NCI-H929 = assay: Cytostatic activity on human multiple myeloma cell line NCI-H929 (WST-1); format: cell-based; conditions: Homo sapiens, 10 μmol/L, 72 hours, read-out: cytostatic rate (%) H929 (10 μmol/L)
In short: as §1

IGF-1R = target: T1, IGF-1R (Homo sapiens, UniProt P08069); assay: IGF-1R inhibitory activity (kinase reaction, time-resolved fluoroimmunoassay); format: biochemical; conditions: test compound 10 μmol/L
T1 construct: purchased Upstate Co. 14-465
T1 sequence (P08069 959-1367 limits assumed): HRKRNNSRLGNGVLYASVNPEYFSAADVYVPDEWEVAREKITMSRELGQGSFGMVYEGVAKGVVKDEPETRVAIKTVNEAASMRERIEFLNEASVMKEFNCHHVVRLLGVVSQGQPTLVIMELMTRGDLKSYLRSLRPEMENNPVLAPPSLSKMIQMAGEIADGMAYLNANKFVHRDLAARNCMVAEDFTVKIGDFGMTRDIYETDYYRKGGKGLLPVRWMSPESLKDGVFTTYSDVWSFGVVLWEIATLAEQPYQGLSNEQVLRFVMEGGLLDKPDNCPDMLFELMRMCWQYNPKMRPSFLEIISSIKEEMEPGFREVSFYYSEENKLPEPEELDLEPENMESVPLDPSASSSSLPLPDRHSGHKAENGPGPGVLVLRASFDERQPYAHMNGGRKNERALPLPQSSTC
In short: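 Compounds were tested at a single 10 μmol/L concentration. Each was incubated with recombinant IGF-1R (200 μg/L), 10 mmol/L ATP, MgCl2/MnCl2 and Na3VO4 (pH 7.5) on immobilized poly(Glu-Tyr) peptide for 30 min at 24° C. Eu-anti-phosphotyrosine time-resolved fluorescence (340/615 nm) gave relative activity against no-compound and no-enzyme wells, reported as % inhibition.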

[1] = IGF-1R active recombinant enzyme

Row | SMILES | inhibition at 10 µM (KMS-11; KMS-11, 72 h) [%] | inhibition at 10 µM (NCI-H929; NCI-H929, 72 h) [%] | inhibition at 10 µM (IGF-1R; [1]) [%] | inhibition at 10 µM (IGF-1R) [%] | inhibition at 10 µM (KMS-11; KMS-11) [%] | inhibition at 10 µM (NCI-H929; NCI-H929) [%]
1 | O=C(Nc1ccccc1/C=C/c1n[nH]c2ccccc12)c1cccc([N+](=O)[O-])c1 [Compound 64, (E)-N-{2-[2-(1H-indazol-3-yl)vinyl]phenyl}-3-nitrobenzamide] | 124 | 108 | 97 | – | – | –
2 | O=C(Nc1ccccc1/C=C/c1n[nH]c2ccccc12)c1ccc([N+](=O)[O-])cc1 [Compound 65, (E)-N-{2-[2-(1H-indazol-3-yl)vinyl]phenyl}-4-nitrobenzamide] | 120 | 109 | 97.9 | – | – | –
3 | Cc1cc([N+](=O)[O-])sc1C(=O)Nc1ccccc1/C=C/c1n[nH]c2ccccc12 [Compound 66, (E)-N-{2-[2-(1H-indazol-3-yl)vinyl]phenyl}-3-methyl-5-nitrothiophene-2-carboxamide] | 114 | 111 | 93.6 | – | – | –
4 | Cc1cc(N)sc1C(=O)Nc1ccccc1/C=C/c1n[nH]c2ccccc12 [Compound 67, (E)-5-amino-N-{2-[2-(1H-indazol-3-yl)vinyl]phenyl}-3-methylthiophene-2-carboxamide] | 100 | 119 | 95.6 | – | – | –
5 | CC(=O)Nc1ccc(C(=O)Nc2ccccc2/C=C/c2n[nH]c3ccccc23)s1 [Compound 68, (E)-5-acetylamino-N-{2-[2-(1H-indazol-3-yl)vinyl]phenyl}thiophene-2-carboxamide] | 112 | 114 | 97.4 | – | – | –
6 | Nc1cccc(C(=O)Nc2ccccc2/C=C/c2n[nH]c3ccccc23)c1 [Compound 69, (E)-3-amino-N-{2-[2-(1H-indazol-3-yl)vinyl]phenyl}benzamide] | 114 | 116 | 101 | – | – | –
7 | Nc1ccc(C(=O)Nc2ccccc2/C=C/c2n[nH]c3ccccc23)cc1 [Compound 70, (E)-4-amino-N-{2-[2-(1H-indazol-3-yl)vinyl]phenyl}benzamide] | 113 | 115 | 101 | – | – | –
8 | Cc1nnsc1C(=O)Nc1ccccc1/C=C/c1n[nH]c2ccccc12 [Compound 71, (E)-N-{2-[2-(1H-indazol-3-yl)vinyl]phenyl}-4-methyl-[1,2,3]thiadiazole-5-carboxamide] | 114 | 115 | 99.4 | – | – | –
9 | Cn1cccc1CC(=O)Nc1ccccc1/C=C/c1n[nH]c2ccccc12 [Compound 73, (E)-N-{2-[2-(1H-indazol-3-yl)vinyl]phenyl}-2-(1-methyl-1H-pyrrole-2-yl)acetamide] | 90.4 | 80 | 88 | – | – | –
10 | Cn1cc(N)cc1C(=O)Nc1ccccc1/C=C/c1n[nH]c2ccccc12 [Compound 76, (E)-4-amino-N-{2-[2-(1H-indazol-3-yl)vinyl]phenyl}-1-methyl-1H-pyrrole-2-carboxamide trifluoroacetate] | 126 | 109 | 99.2 | – | – | –
11 | O=C(Nc1ccccc1/C=C/c1n[nH]c2ccccc12)c1ccc(O)cc1 [Compound 77, (E)-4-hydroxy-N-{2-[2-(1H-indazol-3-yl)vinyl]phenyl}benzamide] | 126 | 111 | 101 | – | – | –
12 | COCCOc1ccc(C(=O)Nc2ccccc2/C=C/c2n[nH]c3ccccc23)cc1 [Compound 78, (E)-N-{2-[2-(1H-indazol-3-yl)vinyl]phenyl}-4-(2-methoxyethoxy)benzamide] | 107 | 114 | 100 | – | – | –
13 | N#Cc1ccc(C(=O)Nc2ccccc2/C=C/c2n[nH]c3ccccc23)cc1 [Compound 83, (E)-4-cyano-N-{2-[2-(1H-indazol-3-yl)vinyl]phenyl}benzamide] | 107 | 114 | – | 96.3 | – | –
14 | Nc1ccc(C(=O)Nc2ccccc2/C=C/c2n[nH]c3ccccc23)c(Cl)c1 [Compound 84, (E)-4-amino-2-chloro-N-{2-[2-(1H-indazol-3-yl)vinyl]phenyl}benzamide] | 107 | 113 | – | 100 | – | –
15 | CC(=O)N1CCN(C(=O)c2ccc(/C=C/c3n[nH]c4ccccc34)c(NC(=O)Cc3cccs3)c2)CC1 [Compound 89, (E)-N-{5-(4-acetylpiperazin-1-ylcarbonyl)-2-[2-(1H-indazol-3-yl)vinyl]phenyl}-2-(thiophen-2-yl)acetamide] | 138 | 114 | – | 98.4 | – | –
16 | CC(=O)N1CCN(C(=O)c2ccc(/C=C/c3n[nH]c4ccccc34)c(NC(=O)c3cc4ccccc4s3)c2)CC1 [Compound 90, (E)-N-{5-(4-acetylpiperazin-1-ylcarbonyl)-2-[2-(1H-indazol-3-yl)vinyl]phenyl}benzo[b]thiophene-2-carboxamide] | 136 | 114 | – | 97 | – | –
17 | CC(=O)N1CCN(C(=O)c2ccc(/C=C/c3n[nH]c4ccccc34)c(NC(=O)c3cccn3C)c2)CC1 [Compound 91, (E)-N-{5-(4-acetylpiperazin-1-ylcarbonyl)-2-[2-(1H-indazol-3-yl)vinyl]phenyl}-1-methyl-1H-pyrrole-2-carboxamide] | 144 | 115 | – | 98.7 | – | –
18 | COc1cccc(/C=C/c2n[nH]c3ccccc23)c1NC(=O)c1sccc1C [Compound 94, (E)-N-{2-[2-(1H-indazol-3-yl)vinyl]-6-methoxyphenyl}-3-methylthiophene-2-carboxamide] | 143 | 125 | – | 95.4 | – | –
19 | COc1cc(/C=C/c2n[nH]c3ccccc23)c(NC(=O)c2sccc2C)cc1OC [Compound 95, (E)-N-{2-[2-(1H-indazol-3-yl)vinyl]-4,5-dimethoxyphenyl}-3-methylthiophene-2-carboxamide] | 138 | 121 | – | 97.2 | – | –
20 | COc1cc(/C=C/c2n[nH]c3ccccc23)c(NC(=O)c2cccn2C)cc1OC [Compound 96, (E)-N-{2-[2-(1H-indazol-3-yl)vinyl]-4,5-dimethoxyphenyl}-1-methyl-1H-pyrrole-2-carboxamide] | 117 | 117 | – | 100 | – | –
21 | Cc1ccsc1C(=O)Nc1cc(N(C)C)ccc1/C=C/c1n[nH]c2ccccc12 [Compound 105, (E)-N-{5-dimethylamino-2-[2-(1H-indazol-3-yl)vinyl]phenyl}-3-methylthiophene-2-carboxamide] | 120 | 120 | – | 94.8 | – | –
22 | CN(C)c1ccc(/C=C/c2n[nH]c3ccccc23)c(NC(=O)c2cccn2C)c1 [Compound 107, (E)-N-{5-dimethylamino-2-[2-(1H-indazol-3-yl)vinyl]phenyl}-1-methyl-1H-pyrrole-2-carboxamide] | 119 | 119 | – | 92.8 | – | –
23 | Cc1ccsc1C(=O)Nc1ccc(O)cc1/C=C/c1n[nH]c2ccccc12 [Compound 110, (E)-N-{4-hydroxy-2-[2-(1H-indazol-3-yl)vinyl]phenyl}-3-methylthiophene-2-carboxamide] | 118 | 116 | – | 96.3 | – | –
24 | Cc1ccsc1C(=O)Nc1cc(C(=O)N2CCC(N)CC2)ccc1/C=C/c1n[nH]c2ccccc12 [Compound 111, (E)-N-{5-(4-aminopiperidin-1-ylcarbonyl)-2-[2-(1H-indazol-3-yl)vinyl]phenyl}-3-methylthiophene-2-carboxamide] | 112 | 120 | – | 98.1 | – | –
25 | Cc1ccsc1C(=O)Nc1cc(C(=O)N2CCCC2)ccc1/C=C/c1n[nH]c2ccccc12 [Compound 116, (E)-N-{2-[2-(1H-indazol-3-yl)vinyl]-5-(pyrrolidin-1-ylcarbonyl)phenyl}-3-methylthiophene-2-carboxamide] | 114 | 118 | – | 103 | – | –
26 | Cc1ccsc1C(=O)Nc1cc(C(=O)N(C)C)ccc1/C=C/c1n[nH]c2ccccc12 [Compound 117, (E)-N-{5-(N,N-dimethylcarbamoyl)-2-[2-(1H-indazol-3-yl)vinyl]phenyl}-3-methylthiophene-2-carboxamide] | 115 | 119 | – | 101 | – | –
27 | Cc1ccsc1C(=O)Nc1cc(C(=O)NC2CC2)ccc1/C=C/c1n[nH]c2ccccc12 [Compound 118, (E)-N-{5-(N-cyclopropylcarbamoyl)-2-[2-(1H-indazol-3-yl)vinyl]phenyl}-3-methylthiophene-2-carboxamide] | 114 | 116 | – | 102 | – | –
28 | Cc1ccsc1C(=O)Nc1cc(C(=O)N2CCC3(CC2)OCCO3)ccc1/C=C/c1n[nH]c2ccccc12 [Compound 119, (E)-N-{5-(1,4-dioxa-8-azaspiro[4,5]decane-8-carbonyl)-2-[2-(1H-indazol-3-yl)vinyl]phenyl}-3-methylthiophene-2-carboxamide] | – | – | – | 102 | 116 | 117
